Source: ChEMBL document CHEMBL4673382, “Cyclin-Dependent Kinase Inhibitors in Cancer Therapeutics” (ACS Med Chem Lett, 2021)

Assays:
CDK9/cyclin T1 = CDK9/cyclin T1 (Homo sapiens, UniProt P50750); assay: Inhibition of human full-length N-terminal GST-fused CDK9 (1 to 372 residues)/His-tagged Cyclin-T1 (1 to 726 residues) expressed in baculovirus expression system using PEP as substrate incubated for 17 mins in presence of ATP by TR-FRET assay
[1] = biological target: Cyclin-dependent kinase 4/cyclin D1 (Homo sapiens, UniProt P11802); assay: Inhibition of recombinant human full-length GST-tagged CDK4/cyclinD1 expressed in baculovirus expression system using PEP as substrate incubated for 3 mins in presence of ATP by TR-FRET assay
[2] = Half life in rat at 100 mg/kg, po measured up to 48 hrs by LC-MS/MS analysis; assay type: ADME, organism-based; settings: in vivo
[3] = Oral bioavailability in rat at 100 mg/kg administered as single dose measured up to 48 hrs by LC-MS/MS analysis; assay type: ADME, organism-based; settings: in vivo
CDK6/cyclin D3 = CDK6/cyclin D3 (Homo sapiens, UniProt Q00534); assay: Inhibition of human full-length N-terminal GST tagged CDK6 (1 to 326 residues)/cyclinD3 (1 to 292 residues) expressed in baculovirus expression system using PEP as substrate incubated for 3 mins in presence of ATP by TR-FRET assay
Sequence of CDK6/cyclin D3 (P30281 whole entry, the tested form may be a part): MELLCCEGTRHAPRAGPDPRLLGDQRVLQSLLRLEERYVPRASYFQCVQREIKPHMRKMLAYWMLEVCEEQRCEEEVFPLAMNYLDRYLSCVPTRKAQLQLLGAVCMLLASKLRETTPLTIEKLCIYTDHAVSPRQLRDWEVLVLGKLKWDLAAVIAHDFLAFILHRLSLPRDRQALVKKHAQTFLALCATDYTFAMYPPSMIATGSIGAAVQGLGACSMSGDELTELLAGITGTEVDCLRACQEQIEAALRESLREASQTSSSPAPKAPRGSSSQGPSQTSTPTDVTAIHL
Sequence of CDK6/cyclin D3 (Q00534 whole entry, the tested form may be a part): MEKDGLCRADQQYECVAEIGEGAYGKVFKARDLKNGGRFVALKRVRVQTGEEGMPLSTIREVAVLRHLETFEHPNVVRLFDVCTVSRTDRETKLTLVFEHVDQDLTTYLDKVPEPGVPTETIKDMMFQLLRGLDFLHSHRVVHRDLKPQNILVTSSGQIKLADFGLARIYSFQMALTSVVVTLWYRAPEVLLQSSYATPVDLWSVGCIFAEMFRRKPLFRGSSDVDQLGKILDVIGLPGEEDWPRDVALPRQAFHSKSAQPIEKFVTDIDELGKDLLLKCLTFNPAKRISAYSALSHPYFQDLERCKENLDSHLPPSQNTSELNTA

Sequence of CDK9/cyclin T1 (O60563 whole entry, the tested form may be a part): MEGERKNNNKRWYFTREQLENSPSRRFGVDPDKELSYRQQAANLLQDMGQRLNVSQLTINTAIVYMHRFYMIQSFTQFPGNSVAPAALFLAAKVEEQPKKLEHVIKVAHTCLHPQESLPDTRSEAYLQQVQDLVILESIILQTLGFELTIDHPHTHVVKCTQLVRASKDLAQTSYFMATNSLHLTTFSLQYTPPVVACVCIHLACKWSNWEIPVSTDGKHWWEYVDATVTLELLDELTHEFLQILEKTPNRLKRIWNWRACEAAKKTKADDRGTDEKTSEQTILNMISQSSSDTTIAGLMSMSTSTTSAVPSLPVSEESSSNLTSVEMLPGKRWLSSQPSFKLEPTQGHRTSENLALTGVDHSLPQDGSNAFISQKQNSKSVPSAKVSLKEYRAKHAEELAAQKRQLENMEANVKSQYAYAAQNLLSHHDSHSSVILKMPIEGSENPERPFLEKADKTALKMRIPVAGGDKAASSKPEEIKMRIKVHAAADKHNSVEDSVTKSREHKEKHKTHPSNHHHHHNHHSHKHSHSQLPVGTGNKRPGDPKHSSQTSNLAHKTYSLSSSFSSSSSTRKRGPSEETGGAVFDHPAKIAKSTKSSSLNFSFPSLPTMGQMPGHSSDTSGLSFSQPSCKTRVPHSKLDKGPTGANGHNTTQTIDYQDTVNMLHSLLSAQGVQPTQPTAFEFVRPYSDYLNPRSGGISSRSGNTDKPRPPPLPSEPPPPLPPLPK
Sequence of CDK9/cyclin T1 (P50750 whole entry, the tested form may be a part): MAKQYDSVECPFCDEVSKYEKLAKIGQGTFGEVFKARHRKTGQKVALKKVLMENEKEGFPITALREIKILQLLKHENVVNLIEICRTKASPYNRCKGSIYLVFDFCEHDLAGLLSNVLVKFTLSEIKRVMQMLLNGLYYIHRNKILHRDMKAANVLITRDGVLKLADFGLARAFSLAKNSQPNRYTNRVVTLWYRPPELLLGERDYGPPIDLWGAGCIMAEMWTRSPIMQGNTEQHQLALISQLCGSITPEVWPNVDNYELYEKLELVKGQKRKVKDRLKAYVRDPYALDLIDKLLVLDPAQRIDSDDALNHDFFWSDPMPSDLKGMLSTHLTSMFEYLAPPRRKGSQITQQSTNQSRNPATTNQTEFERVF
Sequence of Cyclin-dependent kinase 4/cyclin D1 (P11802 whole entry): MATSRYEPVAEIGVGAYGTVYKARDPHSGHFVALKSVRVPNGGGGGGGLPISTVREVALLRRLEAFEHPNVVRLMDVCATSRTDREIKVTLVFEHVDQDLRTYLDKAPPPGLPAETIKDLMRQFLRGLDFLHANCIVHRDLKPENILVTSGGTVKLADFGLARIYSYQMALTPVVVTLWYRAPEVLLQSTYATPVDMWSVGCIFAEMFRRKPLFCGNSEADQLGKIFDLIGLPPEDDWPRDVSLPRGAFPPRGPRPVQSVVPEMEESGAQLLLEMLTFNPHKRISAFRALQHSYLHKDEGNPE
Sequence of Cyclin-dependent kinase 4/cyclin D1 (P24385 whole entry, further chain): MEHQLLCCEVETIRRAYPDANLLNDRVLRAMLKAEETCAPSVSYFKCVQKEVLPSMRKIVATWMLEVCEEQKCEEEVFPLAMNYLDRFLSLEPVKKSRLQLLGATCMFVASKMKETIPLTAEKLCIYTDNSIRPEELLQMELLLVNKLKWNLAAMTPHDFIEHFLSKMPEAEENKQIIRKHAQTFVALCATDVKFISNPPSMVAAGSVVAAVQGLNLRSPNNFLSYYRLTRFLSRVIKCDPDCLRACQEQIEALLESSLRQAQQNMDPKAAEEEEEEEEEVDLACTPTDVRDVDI

SMILES | IC50 (CDK9/cyclin T1) | IC50 [1] | half-life [2] | bioavailability [3] | IC50 (CDK6/cyclin D3)
CN1CCN(c2ccc(Nc3ncc4c(n3)N(C3CCCC3)C3(CC(=O)NC3=O)C4)cc2)CC1 (stereo not given) | 80.5 nM | 25.7 nM |  |  | 
CC(=O)c1c(C)c2cnc(Nc3ccc(N(C)CCN(C)C)cc3)nc2n(C23CC(C2)C3)c1=O | 149 nM | 30 nM |  |  | 
CN1CCN(c2ccc(Nc3ncc4c(n3)N(C3CCCC3)C3(CCNC3=O)C4)cc2F)CC1 (stereo not given) | 46.6 nM | 51.7 nM |  |  | 258 nM
CN1CCN(c2ccc(Nc3ncc4c(n3)N(C3CCCC3)C3(CC(=O)NC3=O)C4)cc2F)CC1 (stereo not given) | 23.4 nM | 14.4 nM |  |  | 70.6 nM
CC(C)N1CCN(c2ccc(Nc3ncc4c(n3)N(C3CCCC3)C3(CC(=O)NC3=O)C4)cc2)CC1 (stereo not given) | 70.7 nM | 28.4 nM |  |  | 
CC(=O)c1c(C)c2cnc(Nc3ccc(OCCN(C)C)c(F)c3)nc2n(C2CCCC2)c1=O | 31.8 nM | 3 nM |  |  | 10.1 nM

Compounds with a lower IC50 (CDK9/cyclin T1), results first:

IC50 (CDK9/cyclin T1) | IC50 [1] | half-life [2] | bioavailability [3] | IC50 (CDK6/cyclin D3) | SMILES
6.03 nM | < 3.2 nM |  |  |  | CC(=O)c1c(C)c2cnc(Nc3ccc(N4CC(C)NC(C)C4)cc3)nc2n(C2CCCC2)c1=O (stereo not given)
7.08 nM | 3.81 nM | 6 h | 33.3% |  | CN1CCN(c2ccc(Nc3ncc4cc(C(=O)N(C)C)n(C56CC(C5)C6)c4n3)cc2)CC1
6.18 nM | 4.13 nM |  |  | 10.1 nM | CN(C)C(=O)c1cc2cnc(Nc3ccc(N4CCNCC4)c(F)c3)nc2n1C12CC(C1)C2
< 3.2 nM | < 3.2 nM |  |  |  | CN(C)C(=O)c1cc2cnc(Nc3ccc(N4CCN(CCO)CC4)c(F)c3)nc2n1C12CC(C1)C2
7.13 nM | < 3.2 nM |  |  |  | CC(=O)c1c(C)c2cnc(Nc3ccc(N(C)CCN(C)C)cc3)nc2n(C2CCCC2)c1=O
7.55 nM | 3.78 nM |  |  |  | CN1CCN(C2CCN(c3ccc(Nc4ncc5cc(C(=O)N(C)C)n(C67CC(C6)C7)c5n4)cc3F)CC2)CC1
